# Assays:
# [1] = biological target: Casein kinase I isoform gamma-3 (Homo sapiens) (UniProt Q9Y6M4)
# [2] = biological target: Serine/threonine-protein kinase PLK2 (Homo sapiens) (UniProt Q9NYY3)
# [3] = tested on: Phosphatidylinositol 4,5-bisphosphate 3-kinase catalytic subunit alpha isoform (Homo sapiens), P42336 [M1043I]
# [4] = biological target: Mitogen-activated protein kinase kinase kinase 2 (Homo sapiens) (UniProt Q9Y2U5)
# [5] = biological target: Dual specificity mitogen-activated protein kinase kinase 4 (Homo sapiens) (UniProt P45985)
# [6] = biological target: Epithelial discoidin domain-containing receptor 1 (Homo sapiens) (UniProt Q08345)
# [7] = biological target: Cyclin-dependent kinase-like 3 (Homo sapiens) (UniProt Q8IVW4)
# [8] = biological target: Mitogen-activated protein kinase kinase kinase 3 (Homo sapiens) (UniProt Q99759)
# [9] = tested on: Tyrosine-protein kinase ABL1 (Homo sapiens), P00519 [F317L]
# [10] = biological target: Inhibitor of nuclear factor kappa-B kinase subunit beta (Homo sapiens) (UniProt O14920)
# [11] = tested on: Tyrosine-protein kinase ABL1 (Homo sapiens), P00519 [M351T]
# [12] = biological target: cGMP-dependent protein kinase 2 (Homo sapiens) (UniProt Q13237)
# [13] = biological target: Serine/threonine-protein kinase N1 (Homo sapiens) (UniProt Q16512)
# [14] = biological target: Wee1-like protein kinase 2 (Homo sapiens) (UniProt P0C1S8)
# [15] = biological target: Muscarinic acetylcholine receptor M4 (Homo sapiens) (UniProt P08173); conditions: Compound concentration 10.0 uM
# [16] = tested on: Tyrosine-protein kinase ABL1 (Homo sapiens), P00519 [T315I]
# [17] = biological target: Serine/threonine-protein kinase 26 (Homo sapiens, UniProt Q9P289)
# [18] = biological target: Tyrosine-protein kinase JAK2 (Homo sapiens) (UniProt O60674)
# [19] = biological target: Phosphatidylinositol 3-kinase C2 domain-containing subunit gamma (Homo sapiens) (UniProt O75747)
# [20] = biological target: AP2-associated protein kinase 1 (Homo sapiens) (UniProt Q2M2I8)
# [21] = biological target: Rhodopsin kinase GRK1 (Homo sapiens) (UniProt Q15835)
# [22] = biological target: Focal adhesion kinase 1 (Homo sapiens) (UniProt Q05397)
# [23] = biological target: Platelet-derived growth factor receptor alpha (Homo sapiens) (UniProt P16234)
# [24] = biological target: Serine/threonine-protein kinase MARK2 (Homo sapiens, UniProt Q7KZI7)
# [25] = biological target: Casein kinase II subunit alpha' (Homo sapiens) (UniProt P19784)
# [26] = biological target: Hepatocyte growth factor receptor (Homo sapiens) (UniProt P08581)
# [27] = biological target: Bone morphogenetic protein receptor type-1B (Homo sapiens) (UniProt O00238)
# [28] = biological target: Glycogen synthase kinase-3 beta (Homo sapiens, UniProt P49841)
# [29] = biological target: Tyrosine-protein kinase BTK (Homo sapiens) (UniProt Q06187)
# [30] = biological target: Serine/threonine-protein kinase N2 (Homo sapiens) (UniProt Q16513)
# [31] = biological target: Rho-associated protein kinase 2 (Homo sapiens) (UniProt O75116)
# [32] = biological target: Activin receptor type-2B (Homo sapiens) (UniProt Q13705)
# [33] = biological target: Interferon-induced, double-stranded RNA-activated protein kinase (Homo sapiens) (UniProt P19525)
# [34] = biological target: Aurora kinase A (Homo sapiens) (UniProt O14965)
# [35] = biological target: Cyclin-dependent kinase 5 (Homo sapiens, UniProt Q00535)
# [36] = biological target: Mitogen-activated protein kinase 14 (Homo sapiens) (UniProt Q16539)
# [37] = biological target: Cyclin-dependent kinase 4 (Homo sapiens) (UniProt P11802)
# [38] = biological target: Dual specificity mitogen-activated protein kinase kinase 2 (Homo sapiens) (UniProt P36507)
# [39] = biological target: Ribosomal protein S6 kinase alpha-3 (Homo sapiens) (UniProt P51812)
# [40] = biological target: Mitogen-activated protein kinase kinase kinase 12 (Homo sapiens) (UniProt Q12852)
# [41] = biological target: Activin receptor type-1-like (Homo sapiens) (UniProt P37023)
# [42] = biological target: Alpha-2A adrenergic receptor (Homo sapiens) (UniProt P08913); conditions: Compound concentration 10.0 uM
# [43] = biological target: Vascular endothelial growth factor receptor 1 (Homo sapiens) (UniProt P17948)
# [44] = biological target: Serine/threonine-protein kinase 24 (Homo sapiens) (UniProt Q9Y6E0)
# [45] = biological target: Serine/threonine-protein kinase PLK1 (Homo sapiens) (UniProt P53350)
# [46] = biological target: Tyrosine-protein kinase Srms (Homo sapiens) (UniProt Q9H3Y6)
# [47] = Compound concentration 1000.0 nM
# [48] = Compound concentration 100.0 nM
# Chain of Dual specificity mitogen-activated protein kinase kinase 4 (Homo sapiens) (P45985 whole entry, the tested form may be a part): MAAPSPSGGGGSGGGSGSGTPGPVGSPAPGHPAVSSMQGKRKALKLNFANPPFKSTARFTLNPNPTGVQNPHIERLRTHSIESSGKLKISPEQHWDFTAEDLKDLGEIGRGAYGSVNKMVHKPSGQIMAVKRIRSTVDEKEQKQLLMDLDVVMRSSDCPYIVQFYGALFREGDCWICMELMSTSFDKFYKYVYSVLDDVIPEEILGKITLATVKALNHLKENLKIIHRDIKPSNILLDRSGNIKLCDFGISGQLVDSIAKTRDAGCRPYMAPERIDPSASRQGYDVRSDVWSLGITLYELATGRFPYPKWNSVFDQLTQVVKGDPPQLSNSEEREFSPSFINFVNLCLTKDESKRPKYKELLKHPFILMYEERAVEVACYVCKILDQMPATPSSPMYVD
# Chain of Muscarinic acetylcholine receptor M4 (Homo sapiens) (P08173 whole entry): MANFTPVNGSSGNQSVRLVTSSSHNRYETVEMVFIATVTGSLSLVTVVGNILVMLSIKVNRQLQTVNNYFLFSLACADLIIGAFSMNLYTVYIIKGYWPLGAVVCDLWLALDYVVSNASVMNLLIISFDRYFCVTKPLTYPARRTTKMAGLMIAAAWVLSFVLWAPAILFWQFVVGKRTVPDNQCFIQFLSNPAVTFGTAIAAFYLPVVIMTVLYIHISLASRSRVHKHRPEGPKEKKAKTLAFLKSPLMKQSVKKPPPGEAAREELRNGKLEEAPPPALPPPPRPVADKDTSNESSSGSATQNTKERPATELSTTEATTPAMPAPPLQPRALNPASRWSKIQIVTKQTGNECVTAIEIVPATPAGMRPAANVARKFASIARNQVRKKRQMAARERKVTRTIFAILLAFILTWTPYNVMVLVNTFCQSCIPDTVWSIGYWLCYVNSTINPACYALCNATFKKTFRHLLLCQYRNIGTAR
# Chain of Casein kinase I isoform gamma-3 (Homo sapiens) (Q9Y6M4 whole entry, looked up, canonical isoform): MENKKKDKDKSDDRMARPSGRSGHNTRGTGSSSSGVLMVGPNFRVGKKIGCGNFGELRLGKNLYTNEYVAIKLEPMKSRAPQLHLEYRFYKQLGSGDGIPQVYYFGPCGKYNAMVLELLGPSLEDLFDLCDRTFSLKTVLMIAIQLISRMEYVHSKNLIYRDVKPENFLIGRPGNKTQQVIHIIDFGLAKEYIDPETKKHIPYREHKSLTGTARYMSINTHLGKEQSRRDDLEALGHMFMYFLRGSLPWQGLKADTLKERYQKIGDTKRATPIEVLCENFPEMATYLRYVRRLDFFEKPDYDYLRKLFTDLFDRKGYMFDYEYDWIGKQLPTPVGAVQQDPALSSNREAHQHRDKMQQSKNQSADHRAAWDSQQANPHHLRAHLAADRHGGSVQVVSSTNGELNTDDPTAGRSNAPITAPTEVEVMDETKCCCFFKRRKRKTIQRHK
# Chain of Cyclin-dependent kinase 5 (Q00535 whole entry, looked up): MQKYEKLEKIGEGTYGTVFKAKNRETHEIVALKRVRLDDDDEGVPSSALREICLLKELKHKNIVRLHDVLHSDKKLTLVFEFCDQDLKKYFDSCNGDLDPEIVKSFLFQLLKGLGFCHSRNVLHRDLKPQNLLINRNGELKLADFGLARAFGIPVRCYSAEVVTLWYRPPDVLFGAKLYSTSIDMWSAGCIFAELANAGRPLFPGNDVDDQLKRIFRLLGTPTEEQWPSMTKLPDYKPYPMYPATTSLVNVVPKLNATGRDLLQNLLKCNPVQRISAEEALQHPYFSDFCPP
# Chain of AP2-associated protein kinase 1 (Homo sapiens) (Q2M2I8 whole entry, looked up): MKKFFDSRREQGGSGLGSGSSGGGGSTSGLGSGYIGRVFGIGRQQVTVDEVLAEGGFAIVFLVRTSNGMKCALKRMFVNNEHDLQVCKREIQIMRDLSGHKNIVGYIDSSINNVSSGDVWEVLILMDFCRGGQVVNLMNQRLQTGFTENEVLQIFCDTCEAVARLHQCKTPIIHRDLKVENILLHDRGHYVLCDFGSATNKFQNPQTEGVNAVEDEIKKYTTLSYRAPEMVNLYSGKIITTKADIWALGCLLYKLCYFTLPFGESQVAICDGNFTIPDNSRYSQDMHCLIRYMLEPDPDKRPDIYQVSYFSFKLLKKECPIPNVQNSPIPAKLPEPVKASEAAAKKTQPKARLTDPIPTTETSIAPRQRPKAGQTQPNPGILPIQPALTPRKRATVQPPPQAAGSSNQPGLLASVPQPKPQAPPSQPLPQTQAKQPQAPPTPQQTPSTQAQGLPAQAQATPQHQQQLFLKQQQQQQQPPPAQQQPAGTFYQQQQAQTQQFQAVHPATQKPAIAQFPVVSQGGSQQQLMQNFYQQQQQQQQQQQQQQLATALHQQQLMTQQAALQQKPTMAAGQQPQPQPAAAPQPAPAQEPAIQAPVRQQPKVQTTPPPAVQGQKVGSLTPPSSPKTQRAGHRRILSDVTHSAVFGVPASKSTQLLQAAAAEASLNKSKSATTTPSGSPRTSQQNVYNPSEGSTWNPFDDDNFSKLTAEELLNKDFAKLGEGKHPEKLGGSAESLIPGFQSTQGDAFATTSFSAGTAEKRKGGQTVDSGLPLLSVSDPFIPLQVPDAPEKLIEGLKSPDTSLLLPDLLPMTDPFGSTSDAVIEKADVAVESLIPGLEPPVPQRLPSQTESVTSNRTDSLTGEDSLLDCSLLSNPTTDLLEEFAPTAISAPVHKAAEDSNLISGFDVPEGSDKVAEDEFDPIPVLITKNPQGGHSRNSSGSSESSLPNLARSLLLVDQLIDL
# Chain of Casein kinase II subunit alpha' (Homo sapiens) (P19784 whole entry, looked up): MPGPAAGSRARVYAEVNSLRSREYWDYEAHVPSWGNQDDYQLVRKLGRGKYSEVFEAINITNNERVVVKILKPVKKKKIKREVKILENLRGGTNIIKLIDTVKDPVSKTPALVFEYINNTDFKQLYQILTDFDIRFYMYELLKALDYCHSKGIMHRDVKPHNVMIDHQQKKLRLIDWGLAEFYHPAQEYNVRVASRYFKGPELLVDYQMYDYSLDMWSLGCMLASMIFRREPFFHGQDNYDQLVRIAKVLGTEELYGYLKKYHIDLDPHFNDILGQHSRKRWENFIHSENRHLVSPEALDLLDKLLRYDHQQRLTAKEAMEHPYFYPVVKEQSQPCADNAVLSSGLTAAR
# Chain of Activin receptor type-1-like (Homo sapiens) (P37023 whole entry): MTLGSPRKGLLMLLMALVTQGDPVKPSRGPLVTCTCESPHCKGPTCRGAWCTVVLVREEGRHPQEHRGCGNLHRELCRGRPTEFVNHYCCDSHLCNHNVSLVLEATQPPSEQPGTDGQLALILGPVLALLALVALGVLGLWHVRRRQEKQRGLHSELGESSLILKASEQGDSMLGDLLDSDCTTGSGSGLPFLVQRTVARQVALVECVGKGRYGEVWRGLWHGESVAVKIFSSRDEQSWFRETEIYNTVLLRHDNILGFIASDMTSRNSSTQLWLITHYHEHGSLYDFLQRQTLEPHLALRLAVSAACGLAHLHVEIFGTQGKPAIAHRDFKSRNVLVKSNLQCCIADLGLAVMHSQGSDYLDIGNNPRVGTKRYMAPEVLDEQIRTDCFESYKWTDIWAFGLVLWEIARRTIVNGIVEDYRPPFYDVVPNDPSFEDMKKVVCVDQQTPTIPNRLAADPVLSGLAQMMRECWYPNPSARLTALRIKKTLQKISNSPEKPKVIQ
# Chain of Ribosomal protein S6 kinase alpha-3 (Homo sapiens) (P51812 whole entry): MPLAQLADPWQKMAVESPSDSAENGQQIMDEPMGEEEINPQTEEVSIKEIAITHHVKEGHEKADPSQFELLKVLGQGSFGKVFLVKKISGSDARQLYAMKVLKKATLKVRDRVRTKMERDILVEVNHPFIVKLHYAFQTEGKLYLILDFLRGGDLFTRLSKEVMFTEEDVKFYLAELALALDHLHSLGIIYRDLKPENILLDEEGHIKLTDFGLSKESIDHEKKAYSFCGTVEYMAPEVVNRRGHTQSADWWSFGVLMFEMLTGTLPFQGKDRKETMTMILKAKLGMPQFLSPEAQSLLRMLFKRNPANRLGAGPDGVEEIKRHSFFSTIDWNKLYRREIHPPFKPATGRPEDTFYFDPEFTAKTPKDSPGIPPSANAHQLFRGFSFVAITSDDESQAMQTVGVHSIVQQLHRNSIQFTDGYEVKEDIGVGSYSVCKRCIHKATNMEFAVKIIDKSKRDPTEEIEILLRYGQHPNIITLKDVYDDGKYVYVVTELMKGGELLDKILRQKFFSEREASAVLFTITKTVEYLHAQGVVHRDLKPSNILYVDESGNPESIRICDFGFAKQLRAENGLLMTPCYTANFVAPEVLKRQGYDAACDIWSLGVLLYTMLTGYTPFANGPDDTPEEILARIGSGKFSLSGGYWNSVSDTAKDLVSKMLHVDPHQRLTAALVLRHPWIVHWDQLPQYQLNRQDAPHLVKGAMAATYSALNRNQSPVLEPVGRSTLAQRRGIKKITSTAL
# Chain of Dual specificity mitogen-activated protein kinase kinase 2 (Homo sapiens) (P36507 whole entry): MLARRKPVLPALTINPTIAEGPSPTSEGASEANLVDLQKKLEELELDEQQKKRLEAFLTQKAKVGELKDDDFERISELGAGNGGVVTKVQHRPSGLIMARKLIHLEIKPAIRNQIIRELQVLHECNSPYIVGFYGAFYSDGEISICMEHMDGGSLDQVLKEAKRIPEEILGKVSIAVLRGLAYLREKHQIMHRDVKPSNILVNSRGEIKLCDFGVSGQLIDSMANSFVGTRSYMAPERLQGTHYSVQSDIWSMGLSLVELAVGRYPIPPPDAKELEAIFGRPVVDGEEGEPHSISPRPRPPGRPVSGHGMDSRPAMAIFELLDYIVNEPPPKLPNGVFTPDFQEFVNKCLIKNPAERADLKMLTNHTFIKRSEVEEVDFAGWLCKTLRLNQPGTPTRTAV
# Chain of Glycogen synthase kinase-3 beta (P49841 whole entry, looked up): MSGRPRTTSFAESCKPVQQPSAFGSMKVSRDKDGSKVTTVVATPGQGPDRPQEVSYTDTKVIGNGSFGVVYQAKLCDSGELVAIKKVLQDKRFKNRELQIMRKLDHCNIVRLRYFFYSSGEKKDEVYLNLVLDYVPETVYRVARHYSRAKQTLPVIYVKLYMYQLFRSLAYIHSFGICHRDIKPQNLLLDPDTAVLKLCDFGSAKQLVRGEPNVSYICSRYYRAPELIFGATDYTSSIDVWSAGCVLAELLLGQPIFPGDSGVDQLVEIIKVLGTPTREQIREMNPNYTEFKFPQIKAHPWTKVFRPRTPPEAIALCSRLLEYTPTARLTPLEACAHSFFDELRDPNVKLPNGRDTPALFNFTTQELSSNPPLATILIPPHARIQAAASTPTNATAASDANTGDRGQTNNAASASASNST
structure (smiles),measurement,setting,value
C[C@H](NC(=O)Nc1cc2[nH]ncc2c(CO)n1)c1ccccn1 [ERKi-NC],residual activity,[1]; [47],100%
same,residual activity,[2]; [47],100%
same,residual activity,[3]; [47],37.7%
same,residual activity,[4]; [47],98.4%
same,residual activity,[5]; [47],88.9%
same,residual activity,[6]; [47],74.7%
same,residual activity,[7]; [47],100%
same,residual activity,[8]; [47],100%
same,residual activity,[9]; [47],100%
same,residual activity,[10]; [47],100%
same,residual activity,[11]; [47],89.8%
same,residual activity,[12]; [47],100%
same,residual activity,[13]; [47],93.1%
same,residual activity,[14]; [47],100%
same,inhibition,[15],18.7%
same,residual activity,[16]; [47],94.4%
same,residual activity,[17]; [47],100%
same,residual activity,[18]; [47],100%
same,residual activity,[19]; [47],93.1%
same,residual activity,[20]; [47],100%
same,residual activity,[21]; [47],59.5%
same,residual activity,[22]; [47],100%
same,residual activity,[23]; [47],100%
same,residual activity,[24]; [47],100%
same,residual activity,[25]; [47],100%
same,residual activity,[26]; [47],100%
same,residual activity,[27]; [47],100%
same,residual activity,[28]; [47],100%
same,residual activity,[29]; [47],92%
same,residual activity,[30]; [47],100%
same,residual activity,[31]; [47],88.4%
same,residual activity,[32]; [47],86.2%
same,residual activity,[33]; [47],71.8%
same,residual activity,[34]; [47],100%
same,residual activity,[35]; [47],100%
same,residual activity,[36]; [47],100%
same,residual activity,[37]; [47],74.2%
same,residual activity,[38]; [47],90.7%
same,residual activity,[39]; [47],79.5%
same,residual activity,[40]; [47],67.9%
same,residual activity,[41]; [47],92.3%
same,inhibition,[42],16.8%
same,residual activity,[43]; [47],100%
same,residual activity,[44]; [47],98%
same,residual activity,[45]; [47],92.1%
same,residual activity,[46]; [47],84%
C[C@@H](NC(=O)Nc1cc2[nH]ncc2c(CO)n1)c1ccccc1 [ERKi],residual activity,[1]; [48],87.9%
same,residual activity,[2]; [48],95.1%
same,residual activity,[3]; [48],100%
same,residual activity,[4]; [48],87.3%
same,residual activity,[5]; [48],89.2%
same,residual activity,[6]; [48],100%
same,residual activity,[7]; [48],95.6%
same,residual activity,[8]; [48],82.1%
same,residual activity,[9]; [48],100%
same,residual activity,[10]; [48],100%
same,residual activity,[11]; [48],100%
same,residual activity,[12]; [48],76.1%
same,residual activity,[13]; [48],89.3%
same,residual activity,[14]; [48],77.6%
same,inhibition,[15],-0.569%
same,residual activity,[16]; [48],100%
same,residual activity,[17]; [48],94.9%
same,residual activity,[18]; [48],93.7%
same,residual activity,[19]; [48],68.3%
same,residual activity,[20]; [48],52.5%
same,residual activity,[21]; [48],78.3%
same,residual activity,[22]; [48],85.7%
same,residual activity,[23]; [48],87.3%
same,residual activity,[24]; [48],100%
same,residual activity,[25]; [48],76%
same,residual activity,[26]; [48],94.9%
same,residual activity,[27]; [48],69.4%
same,residual activity,[28]; [48],100%
same,residual activity,[29]; [48],100%
same,residual activity,[30]; [48],83.4%
same,residual activity,[31]; [48],44.7%
same,residual activity,[32]; [48],87.6%
same,residual activity,[33]; [48],78.1%
same,residual activity,[34]; [48],82%
same,residual activity,[35]; [48],100%
same,residual activity,[36]; [48],100%
same,residual activity,[37]; [48],86.6%
same,residual activity,[38]; [48],84.8%
same,residual activity,[39]; [48],85.4%
same,residual activity,[40]; [48],97.4%
same,residual activity,[41]; [48],90.9%
same,inhibition,[42],9.2%
same,residual activity,[43]; [48],100%
same,residual activity,[44]; [48],100%
same,residual activity,[45]; [48],58.4%
same,residual activity,[46]; [48],87.1%
